One may read the Papp as a coefficient for how fast a substance crosses the barrier. Low values mean poor permeation, high ones ready permeation.

This note sets out measurements from patent US7863265B2, “2-azetidinone derivatives and their use as cholesterol absorption inhibitors for the treatment of hyperlipidaemia” (AstraZeneca AB, priority 2005, dated 2011).

Data set [1] deals with 14C-cholesterol absorption. Description: In vivo testing of cholesterol absorption inhibitors (A). Conditions: 0.2 μmol/kg by gavage, procedure A, C57BL/6 female mice. The protocol: In Vivo Testing of Cholesterol Absorption Inhibitors (A)
C57BL/6 female mice were maintained on regular chow diet and housed in individual cages to collect faeces. Mice were fasted for 3 hours and then gavaged with vehicle or compound. Half an hour later the mice were gavaged with radiolabelled cholesterol. Six hours after the ^14C-cholesterol gavage blood samples were taken via the tail and plasma prepared to determine how much cholesterol were absorbed. 24 hours after the gavage of ^14C-cholesterol the mice were bled and plasma were prepared for analysis. Faeces were collected for 24 hours to assess absorption efficiency.

Data set [2] can be described thus: Absorption in a Caco-2 cells model. Format: in vitro ADME. The following applies: human. The protocol: (§1) Absorption of the compounds of formula (I) was tested in a Caco-2 cells model (Gastroenterology 1989, 96, 736): […]
Data set [3] has as its system Caco-2 cells. Description: Absorption in a Caco-2 cells model. In kind it is in vitro ADME. The protocol:
as §1

With `O=C(COc1ccc([C@@H]2[C@@H](SCC(O)c3ccc(F)cc3)C(=O)N2c2ccc(F)cc2)cc1)NCC(=O)N[C@H](CC1CCCCC1)C(=O)O` (single isomer, unassigned) [Example 4, N-{[4-((2R,3R)-1-(4-fluorophenyl)-3-{[(2R or S)-2-(4-fluorophenyl)-2-hydroxyethyl]thio}-4-oxoazetidin-2-yl)phenoxy]acetyl}glycyl-3-cyclohexyl-D-alanine], the “inhibition of 14C-cholesterol absorption” value in data set [1] came to 75%. This compound also registered a Papp in data set [2] of 0.04 ×10⁻⁶ cm/s.

For `CC(C)(C)[C@@H](NC(=O)CNC(=O)COc1ccc([C@@H]2[C@@H](SC[C@H](O)c3ccc(F)cc3)C(=O)N2c2ccc(F)cc2)cc1)C(=O)O` [Example 3, N-{[4-((2R,3R)-1-(4-fluorophenyl)-3-{[(2R or 6)-2-(4-fluorophenyl)-2-hydroxyethyl]thio}-4-oxoazetidin-2-yl)phenoxy]acetyl}glycyl-3-methyl-D-valine], in data set [1], the “inhibition of 14C-cholesterol absorption” value is 73%. For the same compound, in data set [3], the Caco value was determined as 0.02 ×10⁻⁶ cm/s.

In the case of `CC(C)(c1ccccc1)[C@@H](NC(=O)CNC(=O)COc1ccc([C@@H]2[C@@H](SCC(O)c3ccc(F)cc3)C(=O)N2c2ccc(F)cc2)cc1)C(=O)O` (single isomer, unassigned) [Example 5, N-{[4-((2R,3R)-1-(4-fluorophenyl)-3-{[(2R or S)-2-(4-fluorophenyl)-2-hydroxyethyl]thio}-4-oxoazetidin-2-yl)phenoxy]acetyl}glycyl-β,β-dimethyl-D-phenylalanine], the “inhibition of 14C-cholesterol absorption” value in data set [1] came out at 78%.
